Experiment [1] deals with PI3Kδ (Homo sapiens (Human), UniProt O00329). Nature of the experiment: PI3Kδ Alphascreen assay. Format: biochemical. The procedure: Full length p110 subunits of PI3k α, β and δ, N-terminally labeled with polyHis tag, were coexpressed with p85 with Baculo virus expression vectors in sf9 insect cells. P110/p85 heterodimers were purified by sequential Ni-NTA, Q-HP, Superdex-100 chromatography. Purified α, β and δ isozymes were stored at −20° C. in 20 mM Tris, pH 8, 0.2M NaCl, 50% glycerol, 5 mM DTT, 2 mM Na cholate. […] The y isozyme was purified by sequential Ni-NTA, Superdex-200, Q-HP chromatography. The γ isozyme was stored frozen at −80° C. in NaH2PO4, pH 8, 0.2M NaCl, 1% ethylene glycol, 2 mM β-mercaptoethanol.
Chain of PI3Kδ (O00329 whole entry): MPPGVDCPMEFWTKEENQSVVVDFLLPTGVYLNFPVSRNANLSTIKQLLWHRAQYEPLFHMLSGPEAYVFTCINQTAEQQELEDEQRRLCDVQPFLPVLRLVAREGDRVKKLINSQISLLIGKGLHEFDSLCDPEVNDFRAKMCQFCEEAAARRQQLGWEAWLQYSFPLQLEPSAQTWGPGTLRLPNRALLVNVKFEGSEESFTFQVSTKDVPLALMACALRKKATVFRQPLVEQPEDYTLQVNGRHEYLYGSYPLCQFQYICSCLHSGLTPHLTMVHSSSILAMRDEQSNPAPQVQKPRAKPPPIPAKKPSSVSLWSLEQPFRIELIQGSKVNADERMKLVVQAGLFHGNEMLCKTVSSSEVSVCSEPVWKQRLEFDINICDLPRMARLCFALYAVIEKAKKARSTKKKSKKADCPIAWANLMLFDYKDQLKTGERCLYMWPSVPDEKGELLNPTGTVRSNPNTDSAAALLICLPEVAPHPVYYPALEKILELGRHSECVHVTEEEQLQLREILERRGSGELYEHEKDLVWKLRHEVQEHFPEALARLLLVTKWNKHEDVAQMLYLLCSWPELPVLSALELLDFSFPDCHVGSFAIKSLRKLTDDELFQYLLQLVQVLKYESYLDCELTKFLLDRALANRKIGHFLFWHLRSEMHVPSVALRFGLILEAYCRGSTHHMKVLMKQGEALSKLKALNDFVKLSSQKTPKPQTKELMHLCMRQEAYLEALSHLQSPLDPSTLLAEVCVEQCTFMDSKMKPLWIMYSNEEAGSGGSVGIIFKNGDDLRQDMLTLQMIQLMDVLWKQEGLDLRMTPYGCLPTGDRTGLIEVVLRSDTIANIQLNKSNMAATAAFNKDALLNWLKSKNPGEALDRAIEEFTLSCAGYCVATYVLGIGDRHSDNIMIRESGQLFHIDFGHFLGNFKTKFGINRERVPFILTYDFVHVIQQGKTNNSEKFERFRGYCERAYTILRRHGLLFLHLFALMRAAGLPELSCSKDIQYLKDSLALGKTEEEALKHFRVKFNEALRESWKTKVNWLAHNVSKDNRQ
Chain of PI3Kδ (P27986 whole entry partner): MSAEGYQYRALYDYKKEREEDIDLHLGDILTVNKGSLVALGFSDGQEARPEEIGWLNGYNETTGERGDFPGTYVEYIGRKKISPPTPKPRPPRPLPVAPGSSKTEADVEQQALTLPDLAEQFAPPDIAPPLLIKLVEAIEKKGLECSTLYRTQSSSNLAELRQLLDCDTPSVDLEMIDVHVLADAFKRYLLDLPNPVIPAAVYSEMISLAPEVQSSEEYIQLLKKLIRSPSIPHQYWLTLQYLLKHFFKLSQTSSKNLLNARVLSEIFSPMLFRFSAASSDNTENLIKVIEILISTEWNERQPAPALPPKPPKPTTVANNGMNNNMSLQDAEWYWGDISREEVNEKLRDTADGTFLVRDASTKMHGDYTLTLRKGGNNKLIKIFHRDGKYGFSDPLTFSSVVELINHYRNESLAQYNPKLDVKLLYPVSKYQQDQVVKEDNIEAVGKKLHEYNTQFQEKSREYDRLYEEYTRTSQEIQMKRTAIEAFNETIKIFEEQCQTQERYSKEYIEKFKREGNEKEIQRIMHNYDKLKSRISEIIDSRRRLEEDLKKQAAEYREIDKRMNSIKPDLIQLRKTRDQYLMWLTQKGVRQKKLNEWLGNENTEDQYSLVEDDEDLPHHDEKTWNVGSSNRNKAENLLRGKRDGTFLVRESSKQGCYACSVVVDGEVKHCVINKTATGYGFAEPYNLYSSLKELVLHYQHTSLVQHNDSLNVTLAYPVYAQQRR
A PI3K Alphascreen® assay (PerkinElmer, Waltham, Mass.) was used to measure the activity of a panel of four phosphoinositide 3-kinases: PI3Kα, PI3Kβ, PI3Kγ, and PI3Kδ. Enzyme reaction buffer was prepared using sterile water (Baxter, Deerfield, Ill.) and 50 mM Tris HCl pH 7, 14 mM MgCl2, 2 mM sodium cholate, and 100 mM NaCl. 2 mM DTT was added fresh the day of the experiment. The Alphascreen buffer was made using sterile water and 10 mM Tris HCl pH 7.5, 150 mM NaCl, 0.10% Tween 20, and 30 mM EDTA. 1 mM DTT was added fresh the day of the experiment. Compound source plates used for this assay were 384-well Greiner clear polypropylene plates containing test compounds at 5 mM and diluted 1:2 over 22 concentrations. Columns 23 and 24 contained only DMSO as these wells comprised the positive and negative controls, respectively. Source plates were replicated by transferring 0.5 uL per well into 384-well Optiplates (PerkinElmer, Waltham, Mass.).
Each PI3K isoform was diluted in enzyme reaction buffer to 2× working stocks. […] PI(4,5)P2 (Echelon Biosciences, Salt Lake City, Utah) was diluted to 10 μM and ATP was diluted to 20 μM. This 2× stock was used in the assays for PI3Kα and PI3Kβ. For assay of PI3Kγ and PI3Kδ, PI(4,5)P2 was diluted to 10 μM and ATP was diluted to 8 μM to prepare a similar 2× working stock. Alphascreen reaction solutions were made using beads from the anti-GST Alphascreen kit (PerkinElmer, Waltham, Mass.). Two 4× working stocks of the Alphascreen reagents were made in Alphascreen reaction buffer. In one stock, biotinylated-IP4 (Echelon Biosciences, Salt Lake City, Utah) was diluted to 40 nM and streptavadin-donor beads were diluted to 80 μg/mL. In the second stock, PIP3-binding protein (Echelon Biosciences, Salt Lake City, Utah) was diluted to 40 nM and anti-GST-acceptor beads were diluted to 80 μg/mL.
10 μL/well of the appropriate substrate 2× stock (containing 20 μM ATP for the PI3Kα and β assays and containing 8 μM ATP for the PI3Kγ and δ assays) was then added to Columns 1-24 of all plates. Plates were then incubated at room temperature for 20 minutes. In the dark, 10 μL/well of the donor bead solution was added to columns 1-24 of the plates to quench the enzyme reaction. The plates were incubated at room temperature for 30 minutes. Still in the dark, 10 μL/well of the acceptor bead solution was added to columns 1-24 of the plates. The plates were then incubated in the dark for 1.5 hours. The plates were read on an Envision multimode Plate Reader (PerkinElmer, Waltham, Mass.) using a 680 nm excitation filter and a 520-620 nm emission filter.

The conditions of experiment [2]: in vivo; cited from earlier work.
For experiment [3] the following is noted: in vivo; cited from earlier work. This is another data set of the same source.
Experiment [4] has as its system protein kinases. To be noted: cited from earlier work.
The conditions of experiment [5]: ovalbumin-induced airway inflammation; cited from earlier work.
Experiment [6] has as its target p110δ (Homo sapiens (Human), UniProt O00329). The conditions noted are these: cited from earlier work.
The subject of experiment [7] is neutrophil. To be noted: cited from earlier work.
The test system of experiment [8] is neutrophil. The conditions noted are these: cited from earlier work. This is another data set of the same source.

The structures appear in SMILES notation.

The text below walks through data of patent US8754089B2, “Heterocyclic compounds and their uses” (Amgen Inc., priority 2009, dated 2014).

A word on the Ki: it is the dissociation constant of the complex between target and ligand, obtained from inhibition or displacement. Read a low Ki as tighter binding.

Chain of p110δ (O00329 whole entry, looked up, species assumed): as the sequence (O00329 whole entry) above
Chain of p110δ (P27986 whole entry partner, looked up, species assumed): as the sequence (P27986 whole entry partner) above

Turning to `Cc1cccc2nc([C@H](C)Nc3ncnc(N)c3C#N)c(-c3ccccc3)c(=O)n12` [4-amino-6-(((1S)-1-(6-methyl-4-oxo-3-phenyl-4H-pyrido[1,2-a]pyrimidin-2-yl)ethyl)amino)-5-pyrimidinecarbonitrile], in experiment [1], the Ki came to 0.005 µM. Take `Cc1ccccc1-c1c(CSc2ncnc3[nH]cnc23)nc2cccc(C)n2c1=O` [6-methyl-3-(2-methylphenyl)-2-((9H-purin-6-yl-sulfanyl)methyl)-4H-pyrido[1,2-a]pyrimidin-4-one]: the Ki in experiment [1] was 9.71 µM. Consider `O=C1NC(=O)/C(=C\c2ccc3nccnc3c2)S1` [AS 605240], for which the “onset of disease in a model of systemic lupus erythematosis” value in experiment [2] is on record as “delay onset of disease”. Further, the “efficacy in a mouse model of rheumatoid arthritis” value in experiment [3] is “efficacious”. As to `Cc1ccccc1-n1c(Cn2cnc3c(N)ncnc32)nc2cccc(C)c2c1=O` [IC87114], the “activity against any protein kinases tested” value in experiment [4] is reported as “no activity”. In addition, the “inflammation and disease in a murine model of asthma” value in experiment [5] is “significantly ameliorate inflammation and disease”. Further, the “inhibition of p110δ” value in experiment [6] is listed as “high nanomolar range (triple digit)”.

With `O=c1cc(N2CCOCC2)oc2c(-c3ccccc3)cccc12` [LY294002], in experiment [7], the neutrophil migration entry is recorded as “block”. Further, in experiment [8], the superoxide release entry was “block”. With `COC[C@H]1OC(=O)c2coc3c2[C@@]1(C)C1=C(C3=O)[C@@H]2CCC(=O)[C@@]2(C)C[C@H]1OC(C)=O` [wortmannin], the neutrophil migration entry in experiment [7] was “block”. In addition, in experiment [8], the superoxide release result is on record as “block”.
